Reference: patent US6794402B2, “Bicyclic cyclohexylamines and their use as NMDA receptor antagonists” (Warner-Lambert Company, priority 2000, dated 2004)

What was measured:
NR1A/NR2B NMDA receptor = NR1A/NR2B NMDA receptor (Rattus norvegicus, UniProt P35439+Q00960); test: Electrophysiological assay at NMDA receptor subunits expressed in Xenopus oocytes; assay type: cell-based; settings: cloned rat NR1A/NR2B in Xenopus oocytes, two-electrode voltage clamp, glutamate 100 μM + glycine 1-100 μM; read-out: NR1A/NR2B Oocyte IC50
NR1A/NR2B NMDA receptor, sequence (Q00960 27-1482, other chains not shown): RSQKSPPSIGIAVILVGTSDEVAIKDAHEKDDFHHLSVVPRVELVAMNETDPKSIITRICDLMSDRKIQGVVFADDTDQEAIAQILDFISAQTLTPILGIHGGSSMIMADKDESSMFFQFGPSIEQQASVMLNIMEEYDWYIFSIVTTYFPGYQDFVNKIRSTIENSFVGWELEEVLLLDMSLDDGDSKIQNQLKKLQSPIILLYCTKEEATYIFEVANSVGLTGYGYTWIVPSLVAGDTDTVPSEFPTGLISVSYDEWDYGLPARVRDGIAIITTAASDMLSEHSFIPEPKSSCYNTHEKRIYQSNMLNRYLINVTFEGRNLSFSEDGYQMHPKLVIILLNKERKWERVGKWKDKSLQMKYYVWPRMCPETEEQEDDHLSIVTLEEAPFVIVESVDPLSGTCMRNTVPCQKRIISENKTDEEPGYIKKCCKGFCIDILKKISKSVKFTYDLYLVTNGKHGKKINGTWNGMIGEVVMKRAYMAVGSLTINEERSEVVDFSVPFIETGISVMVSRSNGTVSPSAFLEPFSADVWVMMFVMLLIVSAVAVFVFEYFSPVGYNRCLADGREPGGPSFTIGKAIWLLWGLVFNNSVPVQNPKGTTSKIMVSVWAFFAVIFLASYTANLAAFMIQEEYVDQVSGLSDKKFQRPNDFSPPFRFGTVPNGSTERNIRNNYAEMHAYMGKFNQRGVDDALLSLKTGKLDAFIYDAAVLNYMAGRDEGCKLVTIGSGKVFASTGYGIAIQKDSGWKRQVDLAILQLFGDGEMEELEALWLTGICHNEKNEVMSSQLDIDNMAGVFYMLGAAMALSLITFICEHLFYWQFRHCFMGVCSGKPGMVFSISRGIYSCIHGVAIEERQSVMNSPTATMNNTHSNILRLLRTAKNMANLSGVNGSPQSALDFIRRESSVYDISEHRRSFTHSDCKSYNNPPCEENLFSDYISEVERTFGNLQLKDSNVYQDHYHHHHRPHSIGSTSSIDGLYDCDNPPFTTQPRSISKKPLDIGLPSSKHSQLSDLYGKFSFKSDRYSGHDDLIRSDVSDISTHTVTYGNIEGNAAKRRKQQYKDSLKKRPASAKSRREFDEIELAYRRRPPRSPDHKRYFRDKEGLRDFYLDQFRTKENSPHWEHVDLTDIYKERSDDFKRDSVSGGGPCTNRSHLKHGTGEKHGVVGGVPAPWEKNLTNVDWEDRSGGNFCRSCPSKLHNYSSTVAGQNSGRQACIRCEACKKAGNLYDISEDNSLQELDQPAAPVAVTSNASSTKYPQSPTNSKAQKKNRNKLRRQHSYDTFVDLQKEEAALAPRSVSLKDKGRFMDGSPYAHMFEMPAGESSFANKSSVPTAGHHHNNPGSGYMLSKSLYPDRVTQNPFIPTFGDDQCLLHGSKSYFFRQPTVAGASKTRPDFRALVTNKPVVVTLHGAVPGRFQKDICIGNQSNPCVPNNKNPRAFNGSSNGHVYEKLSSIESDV
Excerpt: Preparation of RNA. cDNA clones encoding the NR1A, NR2A, NR2B, and NR2C rat NMDA receptor subtypes were used (see, Moriyoshi, supra., 1991; Kutsuwada et al., supra., 1992; Monyer et al., supra, 1992; Ikeda et al., FEBS Lett., 1992;313:34-38; Ishii et al., J. Biol. Chem., 1993;268:2836-2843 for details of these clones or their mouse homologs). The clones were transformed into appropriate host bacteria and plasmid preparations were made with conventional DNA purification techniques. A sample of each clone linearized by restriction enzyme digestion […] was synthesized with T3 RNA polymerase. The cRNA was diluted to 400 ng/μL and stored in 1-μL aliquots at −80° C. until injection.
The Xenopus oocyte expression system. Mature female Xenopus laevis were anaesthetized (20-40 minutes) using 0.15% 3-aminobenzoic acid ethyl ester (MS-222), and 2 to 4 ovarian lobes were surgically removed. Oocytes at developmental stages IV-VI (Dumont J. N., J. Morphol., 1972;136:153-180) were dissected from the ovary still surrounded by enveloping ovarian tissues. Follicle-enclosed oocytes were microinjected with 1:1 mixtures of NR1A:NR2A, 2B or 2C; injecting 1 to 10 ng of RNA encoding each receptor subunit. NR1A encoding RNA was injected alone at ˜20 ng. Oocytes were stored in Barth's medium containing (in mM): NaCl, 88; KCl, 1; CaCl2, 0.41; Ca (NO3)2, 0.33; MgSO4, 0.82; NaHCO3, 2.4; HEPES 5; pH 7.4, with 0.11 mg/mL gentamicin sulphate. While oocytes were still surrounded by enveloping ovarian tissues, the Barth's medium was supplemented with 0.1% bovine serum. Oocytes were defolliculated 1 to 2 days following injections by treatment with collagenase (0.5 mg/mL Sigma Type I for 0.5-1 hr)-(Miledi and Woodward, J. Phsyiol., (Lond) 1989;416:601-621) and subsequently stored in serum-free medium.
Electrical recordings were made using a conventional two-electrode voltage clamp (Dagan TEV-200) over periods ranging between 3 to 21 days following injection (Woodward et al., Mol. Pharmacol., 1992;41:89-103). Oocytes were placed in a 0.1-mL recording chamber continuously perfused (5 mL-15 mL min^−1) with frog Ringer's solution containing (in mM): NaCl, 115; KCL, 2; BaCl2, 1.8; HEPES, 5; and pH 7.4. Drugs were applied by bath perfusion. Using oocytes expressing different subunit combinations of NMDA receptor, NMDA currents were activated by co-application of glutamate (100 μM) and glycine (1-100 μM). Inhibitory potency of the novel antagonists was assessed on responses elicited by fixed concentrations of glutamate and glycine, by measuring reductions in current induced by progressively increasing concentrations of antagonist.
Concentration-inhibition curves were fit with Equation 1.
I/Icontrol=1/(1+([antagonist]/10−^pIC50)^n) Eq. 1
In which Icontrol is the current evoked by agonists alone, pIC50=−log IC50, IC50 is the concentration of antagonist that produced half maximal inhibition, and n is the slope factor (De Lean et al., Am. J. Physiol., 1978;235:E97-102). For incomplete curves, analysis by fitting was unreliable and IC50 values were calculated by simple regression over linear portions of the curves (Origin: Microcal Software).

[1] = target: T1, [3H]ifenprodil binding site, rat forebrain membranes (Rattus norvegicus, UniProt P35439+Q00960); test: [3H]Ifenprodil binding assay; settings: 4 nM [3H]-ifenprodil, 2 hours at room temperature
T1 construct: membrane fraction was prepared from frozen adult rat forebrains; tissue Zivic-Miller Laboratories, Inc; host or cells: adult rat forebrain, washed buffy coat membrane fraction
T1 sequence (Q00960 27-1482, other chains not shown): as above
Outline: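 Washed rat forebrain buffy coat membranes (100-200 μg protein) were incubated with 4 nM [3H]ifenprodil in 20 mM HEPES-KOH pH 7.4 for 2 hours at room temperature, in triplicate, then filtered on PEI-soaked GF/B filters. Nonspecific binding was set with 1 mM ifenprodil. IC50 came from a one- or two-site competition fit.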

[2] = system: 6-Hydroxydopamine-lesioned rats; test: 6-OHDA lesioned rat assay; assay type: in vivo; settings: for 6-OHDA MED: minimum effective dose to potentiate contraversive rotation induced by L-DOPA methyl ester 10 mg/kg SC, 6-hour period; for 6-OHDA active/inactive at the given dose: statistically significant increase in contraversive rotations vs L-DOPA only
Experimental: 6-Hydroxydopamine-lesioned rats were used (see Ungerstedt U., Arbuthnott G. W., Quantitative recording of rotational behavior in rats after 6-hydroxy-dopamine lesions of the nigrostraiatal dopamine system. Brain Res., 1971;24(3):485-93). Adult male Sprague-Dawley rats were anesthetized with chloral hydrate and unilateral lesions of the nigrostriatal dopamine system were accomplished by infusion of 8 μg of 6-hydroxydopamine HBr (6-OHDA) into the right medial forebrain bundle. Rats were pretreated 30 minutes before surgery with desipramine HCl 25 mg/kg intraperitoneally (IP) to protect noradrenegic neurons, and pargyline 25 mg/kg IP to potentiate the effects of 6-OHDA. A minimum of 3 weeks after surgery, the rotational behavior induced by apomorphine HCL 50 μg/kg subcutaneously (SC) was assessed.
Rotational behavior was measured using an automatic rotometer system (Rotorat Rotational Activity System, MED Associates, Georgia, Vt.). Anti-parkinsonian activity was assessed as the ability of the compound to potentiate the contraversive rotation induced by L-DOPA methyl ester, 10 mg/kg SC, over a 6-hour period. Experiments were conducted using a crossover paradigm where each rat received either a vehicle plus L-DOPA, or the test compound plus L-DOPA, in randomized order. Rats were tested at 7-day intervals. In experiments in which the compound was tested orally, rats were food deprived for 16 hours. Statistical analysis between treatment groups were performed using a paired t-test. The results were reported in Table 1 as the minimum effective dose (MED) of compound (mg/kg) required to produce a statistically-significant increase in total contraversive rotations compared to rats receiving L-DOPA only.

| Structure (SMILES) | IC50 (NR1A/NR2B NMDA receptor) [nM] | IC50 [1] [nM] | melting point [°C] | 6-OHDA MED [2] [mg/kg] | 6-OHDA active/inactive at the given dose [2] |
| --- | --- | --- | --- | --- | --- |
| C[C@H](N[C@H]1CC[C@H](c2ccc3[nH]c(=O)oc3c2)CC1)[C@H](O)c1ccccc1 (stereo in doubt) [Example 12, 6-{trans-4-[(1S,2R)-2-Hydroxy-1-methyl-2-phenylethylamino]cyclohexyl}-3H-benzoxazol-2-one] | 70000 | 22500 |  |  |  |
| O=c1[nH]c2ccc([C@H]3CC[C@H](NCCCc4ccc(F)cc4)CC3)cc2o1 [Example 4a, 6-{trans-4-[3-(4-Fluorophenyl)propylamino]cyclohexyl}-3H-benzoxazol-2-one] | 20 | 7 |  | > 10.0 | inactive |
| O=c1[nH]c2ccc([C@H]3CC[C@H](NCCNc4ccccc4)CC3)cc2o1 [Example 7, 6-[trans-4-(2-Phenylaminoethylamino)cyclohexyl]-3H-benzoxazol-2-one] | 90 | 37 | 293 to 295 |  |  |
| O=c1[nH]c2ccc([C@H]3CC[C@H](NCCSc4ccc(F)cc4)CC3)cc2o1 [Example 8, 6-{trans-4-[2-(4-Fluorophenylsulfanyl)ethylamino]cyclohexyl}-3H-benzoxazol-2-one] | 20 |  |  |  |  |
| C[C@H](CCc1ccccc1)N[C@H]1CC[C@H](c2ccc3[nH]c(=O)oc3c2)CC1 [Example 9, 6-{trans-4-[(R)-1-Methyl-3-phenylpropylamino]cyclohexyl}-3H-benzoxazol-2-one] | 60 | 15 |  |  |  |
| C[C@@H](CCc1ccccc1)N[C@H]1CC[C@H](c2ccc3[nH]c(=O)oc3c2)CC1 [Example 10, 6-{trans-4-[(S)-1-Methyl-3-phenylpropylamino]cyclohexyl}-3H-benzoxazol-2-one] | 110 | 49 | 174 to 176 |  |  |
| COc1ccc([C@H](O)[C@H](C)N[C@H]2CC[C@H](c3ccc4[nH]c(=O)oc4c3)CC2)cc1 [Example 11a, 6-{trans-4-[(1S,2S)-2-Hydroxy-2-(4-methoxyphenyl)-1-methylethylamino]-cyclohexyl}-3H-benzoxazol-2-one] | 55000 | > 1000 |  |  |  |
| COc1ccc([C@H](O)[C@H](C)N[C@H]2CC[C@@H](c3ccc4[nH]c(=O)oc4c3)CC2)cc1 [Example 11b, 6-{cis-4-[(1S,2S)-2-Hydroxy-2-(4-methoxyphenyl)-1-methylethylamino]-cyclohexyl}-3H-benzoxazol-2-one] | 10000 | > 1000 |  |  |  |
| O=c1[nH]c2ccc([C@H]3CC[C@H](NCC[S+]([O-])c4ccccc4)CC3)cc2o1 (stereo partly drawn) [Example 15, 6-[trans-4-(2-Benzenesulfinylethylamino)cyclohexyl]-3H-benzoxazol-2-one] | 460 | 92 |  |  |  |
| O=c1[nH]c2ccc([C@H]3CC[C@H](NCCS(=O)(=O)c4ccccc4)CC3)cc2o1 [Example 16, 6-[trans-4-(2-Benzenesulfonylethylamino)cyclohexyl]-3H-benzoxazol-2-one] | 2500 | 1730 |  |  |  |
| CN(CCCc1ccccc1)[C@H]1CC[C@H](c2ccc3[nH]c(=O)oc3c2)CC1 [Example 17, 6-{trans-4-[Methyl(3-phenylpropyl)amino]cyclohexyl}-3H-benzoxazol-2-one] |  | 10 | 58 to 62 | 10 | active |
| CN(CCSc1ccc(F)cc1)[C@H]1CC[C@H](c2ccc3[nH]c(=O)oc3c2)CC1 [Example 20, 6-{trans-4-[2-(4-Fluorophenylsulfanylethyl)methylamino]cyclohexyl}-3H-benzoxazol-2-one] |  | 25 |  | 30 | active |
| Cc1ccc(CCCN(C)[C@H]2CC[C@H](c3ccc4[nH]c(=O)oc4c3)CC2)cc1 [Example 21, 6-{trans-4-[Methyl-3-(p-Tolylpropyl)amino]cyclohexyl}-3H-benzoxazol-2-one] |  | 16 |  | 10 | active |
| CN(CCOc1ccccc1)[C@H]1CC[C@H](c2ccc3[nH]c(=O)oc3c2)CC1 [Example 22, 6-{trans-4-[Methyl(2-phenoxyethyl)amino]cyclohexyl}-3H-benzoxazol-2-one] |  | 53 |  | 10 | active |
| CN(CCCc1ccc(C(F)(F)F)cc1)[C@H]1CC[C@H](c2ccc3[nH]c(=O)oc3c2)CC1 [Example 23, 6-{trans-4-[Methyl-3-(4-Trifluoromethylphenyl)propylamino]cyclohexyl}-3H-benzoxazol-2-one] |  | 38 |  | 10 | active |
| CCN(CCCc1ccc(F)cc1)[C@H]1CC[C@H](c2ccc3[nH]c(=O)oc3c2)CC1 [Example 25, 6-(trans-4-{Ethyl-[3-(4-fluorophenyl)propyl]amino}cyclohexyl)-3H-benzoxazol-2-one] |  | 79 |  | 10 | active |
| CN(C)c1ccc(CCCN(C)[C@H]2CC[C@H](c3ccc4[nH]c(=O)oc4c3)CC2)cc1 [Example 58, 6-(4-{[3(trans-4-Dimethylaminophenyl)propyl]methylamino}cyclohexyl)-3H-benzoxazol2-one] |  | 357 | 182 to 184 |  |  |

Now from value to molecule, other results behind:

| IC50 (NR1A/NR2B NMDA receptor) [nM] | IC50 [1] [nM] | melting point [°C] | Structure (SMILES) | 6-OHDA MED [2] [mg/kg] | 6-OHDA active/inactive at the given dose [2] |
| --- | --- | --- | --- | --- | --- |
| 20 | 4 |  | O=c1[nH]c2ccc([C@H]3CC[C@H](NCCSc4ccccc4)CC3)cc2o1 [Example 5a, 6-[trans-4-(2-Phenylsulfanylethylamino)cyclohexyl]-3H-benzoxazol-2-one] |  |  |
| 80 | 38 |  | Cc1ccc(CCCN[C@H]2CC[C@@H](c3ccc4[nH]c(=O)oc4c3)CC2)cc1 [Example 13a, 6-[cis-4-(3-p-Tolylpropylamino)cyclohexyl]-3H-benzoxazol-2-one] |  |  |
| 20 | 5 |  | Cc1ccc(CCCN[C@H]2CC[C@H](c3ccc4[nH]c(=O)oc4c3)CC2)cc1 [Example 13b, 6-[trans-4-(3-p-Tolylpropylamino)cyclohexyl]-3H-benzoxazol-2-one] |  |  |
